Columns and labels:
[1] = Dissolution/dispersion in water and organic solvents, Tyndall effect; type: physicochemical
Neuroma blast cells N2a = assay: Cytotoxicity test (MTT method); type: cell-based; conditions: 24 hours after drug addition
Experimental: A group of Neuroma blast cells N2a that are cultured in a blank medium without hydrophobic drugs (i.e., the curcumin analog M1) defines a negative control group, and a rate of cell viability of the Neuroma blast cells N2a in the negative control group is calculated as 100%. FIG. 8 illustrates the results.

solubility in tetrahydrofuran ([1]; tetrahydrofuran): soluble in tetrahydrofuran | dissolution / dispersion in water ([1]; water): difficultly dissolved in water
Compound: COc1ccccc1/C=C/C(=O)/C=C/c1ccccc1OC [curcumin analog M1]
cytotoxicity (cell survival rate) (Neuroma blast cells N2a): dose-dependent cytotoxicity

— patent publication US20220000804A1, “INTRANASAL NANO INDUCER FOR PREVENTING AND TREATING NEURODEGENERATIVE DISEASES AND METHOD THEREOF” (Nasal-Phyto (SZ) Pharmaceutical Technology Co., Ltd., priority 2019, published 2022)
